Tested on: HEK293 cells
Experiment: Preliminary screening as mRNA vectors, EGFP mRNA transfection of HEK293 cells
Type: cell-based
Settings: EGFP mRNA 50 ng per well, 96-well plates; percentage of GFP fluorescent cells relative to total number of cells (Hoechst)
Summary of the method: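 HEK293 cells in DMEM plus 10% FBS transfected in 96-well format with 50 ng EGFP mRNA per well; Lipofectamine2000 served as positive control. Read-out is the percentage of GFP-fluorescent cells among total cells, counted by Hoechst nuclear stain.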

SMILES | Absolute mRNA transfection efficiency in HEK293 cells
CCCCCCCCCCCCCCCSc1nc(NCCCCCCCCCCC)nc(NCCN2CCN(C)CC2)n1 [Compound D5S15N11] | 12.7%
CCCCCCCCCCCCN(CCCCCCCCCCCC)c1nc(NCCN2CCN(C)CC2)nc(SCCCCCCCCCCC)n1 [D5S11^2N12] | 0.6%
CCCCCCCCCCCCCCCCCCNc1nc(NCCN2CCCCC2)nc(SCCCCCCCCCCC)n1 [Compound D4S11N18] | 8.8%
CCCCCCCCCCCCN(CCCCCCCCCCCC)c1nc(NCCN2CCOCC2)nc(SCCCCCCC)n1 [D2S7^2N12] | 0.4%
CCCCCCCCCCCCCCCCNc1nc(NCCN(C)C)nc(SCCCCCCCCCCCCCC)n1 [Compound D1S14N16] | 1.8%
CCCCCCCCCNc1nc(NCC2CCN(C)CC2)nc(SCCCCCCC)n1 [Compound D10S7N9] | 4.6%
CCCCCCCCCCCCCCSc1nc(NCCCCCCCCCCC)nc(NCCCN2CCOCC2)n1 [Compound D8S14N11] | 2.0%
CCCCCCCCCCCCCCCCNc1nc(NCCCN2CCOCC2)nc(SCCCCCCCCCCCCCCCC)n1 [Compound D8S16N16] | 0.0%
CCCCCCCCCCCCCCCNc1nc(NCCN2CCOCC2)nc(SCCCCCCCC)n1 [Compound D2S8N15] | 5.5%
CCCCCCCSc1nc(NCCN(CC)CC)nc(SCCCCCCC)n1 [Compound D7S7S7] | 18.4%
CCCCCCCCCCCCCCSc1nc(NCCCCCCCCCCCC)nc(NCCN2CCOCC2)n1 [Compound D2S14N12] | 2.1%
CCCCCCCCCCCCSc1nc(NCCCCCC)nc(NCCN2CCCC2)n1 [Compound D3S12N6] | 0.0%
CCCCCCCCCCCCCCCCCCNc1nc(NCCCN2CCN(C)CC2)nc(SCCCCCCCCCCCC)n1 [Compound D9S12N18] | 0.2%
CCCCCCCCCCCCNc1nc(NCCN(C)C)nc(SCCCCCCCCCCCC)n1 [Compound D1S12N12] | 1.7%
CCCCCCCCCCCCCCCNc1nc(NCCCN2CCOCC2)nc(SCCCCCCCCCCCCCCC)n1 [Compound D8S15N15] | 0.1%
CCCCCCCCCCCCCCCNc1nc(NCCN(CC)CC)nc(SCCCCCCCCCCC)n1 [Compound D7S11N15] | 6.5%
CCCCCCCCCCCCCCCCSc1nc(NCCCCCCC)nc(NCCCN2CCOCC2)n1 [Compound D8S16N7] | 17.7%
CCCCCCCCCCCCCCSc1nc(NCCCCCCCCC)nc(NCCN2CCCC2)n1 [Compound D3S14N9] | 51.6%
CCCCCCCCCSc1nc(NCC2CCN(C)CC2)nc(SCCCCCC)n1 [Compound D10S6S9] | 14.7%
CCCCCCCCCCSc1nc(NCCCCCCCC)nc(NCCN2CCN(C)CC2)n1 [Compound D5S10N8] | 8.6%
CCCCCCCCCCCCCCCCCCSc1nc(NCCCCCCCCC)nc(NCCN2CCCCC2)n1 [Compound D4S18N9] | 0.2%
CCCCCCCCCCCCCCCCCCSc1nc(NCCN2CCCCC2)nc(N(CCCCCCCCCCCC)CCCCCCCCCCCC)n1 [D4S18^2N12] | 0.3%

SMILES | Absolute mRNA transfection efficiency in HEK293 cells
CCCCCCCCCCCCCCCSc1nc(NCCCCCCCCCCCC)nc(NCCN2CCCC2)n1 [Compound D3S15N12] | 7.5%
CCCCCCCCCCCCCCCCSc1nc(NCCCCCCCCCCC)nc(NCCCN2CCOCC2)n1 [Compound D8S16N11] | 3.6%
CCCCCCCCCCCCN(CCCCCCCCCCCC)c1nc(NCCCN2CCN(C)CC2)nc(SCCCCCC)n1 [D9S6^2N12] | 0.1%
CCCCCCCCCCCCNc1nc(NCCN2CCN(C)CC2)nc(SCCCCCCCC)n1 [Compound D5S8N12] | 52.5%
CCCCCCCCCCCCCCCCCCSc1nc(NCCN2CCN(C)CC2)nc(SCCCCCCC)n1 [Compound D5S7S18] | 3.8%
CCCCCCCCSc1nc(NCCCCCCC)nc(NCCN2CCCCC2)n1 [Compound D4S8N7] | 1.8%
CCCCCCCCCCCCCNc1nc(NCCCN2CCN(C)CC2)nc(SCCCCCCCCCCCC)n1 [Compound D9S12N13] | 1.0%
CCCCCCCCCCCCCCCSc1nc(NCCCCCCC)nc(NCCN2CCOCC2)n1 [Compound D2S15N7] | 4.5%
CCCCCCCCCCCCCCCCCCNc1nc(NCCN2CCOCC2)nc(SCCCCCCCCCCCC)n1 [Compound D2S12N18] | 0.8%
CCCCCCCCCCCCCCCCCCSc1nc(NCCCCCCCCCCCCCCCC)nc(NCCCN(C)C)n1 [Compound D6S18N16] | 0.0%
CCCCCCCCCCCCNc1nc(NCCN2CCCC2)nc(SCCCCCCCC)n1 [Compound D3S8N12] | 24.6%
CCCCCCCCCCCCSc1nc(NCCCCCC)nc(NCCN2CCCCC2)n1 [Compound D4S12N6] | 0.9%
CCCCCCCCCCCCN(CCCCCCCCCCCC)c1nc(NCCN(CC)CC)nc(SCCCCCCCC)n1 [D7S8^2N12] | 1.3%
CCCCCCCCCCCCCCCCNc1nc(NCCN2CCOCC2)nc(SCCCCCCCCCCCCCC)n1 [Compound D2S14N16] | 0.1%
CCCCCCCCCCCCCCSc1nc(NCCCCCCCCC)nc(NCC2CCN(C)CC2)n1 [Compound D10S14N9] | 54.2%
CCCCCCCCCNc1nc(NCCN(C)C)nc(SCCCCCC)n1 [Compound D1S6N9] | 1.8%
CCCCCCCCCCCCNc1nc(NCCN(C)C)nc(SCCCCCCCC)n1 [Compound D1S8N12] | 17.9%
CCCCCCCCCCCCCCSc1nc(NCCCCCCCCCCCCC)nc(NCCN(C)C)n1 [Compound D1S14N13] | 6.0%
CCCCCCCCSc1nc(NCCCN(C)C)nc(SCCCCCC)n1 [Compound D6S6S8] | 21.1%
CCCCCCCCCCCCCCCCCCNc1nc(NCCN2CCCC2)nc(SCCCCCCCCCCCCCCCC)n1 [Compound D3S16N18] | 14.1%
CCCCCCCCCCSc1nc(NCCN2CCOCC2)nc(SCCCCCCCC)n1 [Compound D2S8S10] | 38.8%
CCCCCCCCSc1nc(NCCN2CCN(C)CC2)nc(SCCCCCC)n1 [Compound D5S6S8] | 8.7%

SMILES | Absolute mRNA transfection efficiency in HEK293 cells
CCCCCCCCCCCCCCSc1nc(NCCCCCCCC)nc(NCCN2CCCCC2)n1 [Compound D4S14N8] | 3.2%
CCCCCCCCCCCCCCCCCCNc1nc(NCC2CCN(C)CC2)nc(SCCCCCCCC)n1 [Compound D10S8N18] | 20.1%
CCCCCCCCCCCCCCCCCCSc1nc(NCCCCCCCCC)nc(NCCN2CCN(C)CC2)n1 [Compound D5S18N9] | 11.6%
CCCCCCCCCCCCSc1nc(NCCN2CCCCC2)nc(SCCCCCCC)n1 [Compound D4S7S12] | 9.2%
CCCCCCCCCCCCCCCSc1nc(NCCN2CCCC2)nc(N(CCCCCCCCCCCC)CCCCCCCCCCCC)n1 [D3S15^2N12] | 1.7%
CCCCCCCCCCCCNc1nc(NCC2CCN(C)CC2)nc(SCCCCCCCCCCCC)n1 [Compound D10S12N12] | 31.5%
CCCCCCCCCCCCCCCCNc1nc(NCCN(C)C)nc(SCCCCCCCCCCC)n1 [Compound D1S11N16] | 13.0%
CCCCCCCCCCCCCCCCNc1nc(NCCN(CC)CC)nc(SCCCCCCCCCCCCCCC)n1 [Compound D7S15N16] | 0.5%
CCCCCCCCCCCCCCSc1nc(NCCCCCCCCCCCC)nc(NCCCN2CCOCC2)n1 [Compound D8S14N12] | 1.3%
CCCCCCCCCCCCCCSc1nc(NCCCCCCC)nc(NCCN2CCCC2)n1 [Compound D3S14N7] | 64.2%
CCCCCCCCNc1nc(NCCN2CCCCC2)nc(SCCCCCCC)n1 [Compound D4S7N8] | 0.5%
CCCCCCCCCCCCCCSc1nc(NCCCCCCCC)nc(NCCCN2CCOCC2)n1 [Compound D8S14N8] | 1.6%
CCCCCCCCCSc1nc(NCCCCCCCC)nc(NCCN2CCN(C)CC2)n1 [Compound D5S9N8] | 6.0%
CCCCCCCCCCCCCCCCNc1nc(NCCCN2CCOCC2)nc(SCCCCCCCC)n1 [Compound D8S8N16] | 4.9%
CCCCCCCCCCCCCCCNc1nc(NCCCN2CCN(C)CC2)nc(SCCCCCCCCCCCCCCC)n1 [Compound D9S15N15] | 0.2%
CCCCCCCCCCSc1nc(NCCN2CCN(C)CC2)nc(SCCCCCCCC)n1 [Compound D5S8S10] | 65.6%
CCCCCCCCCCCCN(CCCCCCCCCCCC)c1nc(NCCCN(C)C)nc(SCCCCCC)n1 [D6S6^2N12] | 0.0%
CCCCCCCCCCCCCCSc1nc(NCCN2CCN(C)CC2)nc(N(CCCCCCCCCCCC)CCCCCCCCCCCC)n1 [D5S14^2N12] | 0.9%
CCCCCCCCCCCCCCCCNc1nc(NCCCN2CCOCC2)nc(SCCCCCCCCC)n1 [Compound D8S9N16] | 2.1%
CCCCCCCCCCCCSc1nc(NCCN(CC)CC)nc(N(CCCCCCCCCCCC)CCCCCCCCCCCC)n1 [D7S12^2N12] | 1.9%
CCCCCCCSc1nc(NCCN2CCCC2)nc(SCCCCCC)n1 [Compound D3S6S7] | 1.3%
CCCCCCCCCCCCCCSc1nc(NCCN(C)C)nc(N(CCCCCCCCCCCC)CCCCCCCCCCCC)n1 [D1S14^2N12] | 0.1%

Reference: patent US20230123334A1, “AMINO LIPID COMPOUND, PREPARATION METHOD THEREFOR, AND APPLICATION THEREOF” (SHENZHEN SHENXIN BIOTECHNOLOGY CO., LTD., priority 2020, published 2023)
